Experiments:
[1] = system: HepG2 2D monolayer; assay: Sensitivity to hepatotoxins, CellTiter-Glo ATP viability, 2D monolayer; type: cell-based; conditions: Homo sapiens, 24-h acute dosing, estimated from graphs
Protocol: (§1) For 2D monolayers, 10,000 HepG2 cells were seeded on 96-well plates (Thermo Fisher, Ireland). Cells were left to adhere for 24 h before being treated with chosen NBMs for desired timepoints. For HepG2 spheroid formation, cells were seeded in CellStar® 96 well ultra-low attachment (ULA) cell-repellent plates (Grenier, BioOne, UK) at a density of 1000 cells per well in 100 µl medium (Fig. 1). After 3 days of incubation at 37 °C with 5% CO2, medium was changed with care taken not to disturb the spheroids.
(§2) Sensitivity of spheroid cultures to a panel of common hepatotoxins was tested using a protocol detailed previously in works from Gaskell et al. and Bell et al. and using information listed in the MIP-DILI training set. The hepatotoxins included acetaminophen, diclofenac, trovafloxacin and fialuridine. HepG2 spheroids grown for 3 days and 10 days were exposed to the hepatotoxins, diluted in cell culture medium, for 4 days, with an addition dose administered 2 days after the first exposure. Concentrations tested for each compound were the following: • Acetaminophen: 10000, 5000, 1250, 625, 300, 150, 75 µg/ml • Diclofenac: 400, 200, 100, 50, 25, 12.5, 6.25 µg/ml • Trovafloxacin: 500, 200, 100, 50, 25, 12.5, 6.25 µg/ml • Fialuridine: 200, 100, 50, 25, 12.5, 6.25, 3.15 µg/ml
(§3) Viability of the treated cultures was determined using the CellTiter-Glo® assay (Thermo Fisher, Ireland) as per the manufacturer’s protocol. Culture medium alone with CellTiter-Glo® reagent was used as a blank control and subtracted from all sample values. Cell viability was calculated as a percentage of untreated vehicle control samples. A dose-dependent response curve was plotted, and estimations were made about what concentration of drug would cause a 50% reduction in cell viability (IC50 value). Experiments were run in triplicate (n = 3).
(§4) Spheroids and HepG2 monolayers were treated with varying concentrations of four common hepatotoxic compounds, namely acetaminophen, diclofenac, fialuridine and trovafloxacin. Following a protocol detailed in Gaskell et al., a 4-day repeat-dosing regimen was used to expose 3D spheroids, i.e. spheroids were cultured for 3 days before being treated with hepatotoxic compounds for 2 days, before doing is repeated again on day 5. Spheroids then remained in culture untouched until ATP quantification assay was undertaken on day 7. […] Each of the four chosen compounds was more toxic in 3D spheroids than in 2D monocultures, although differences were not statistically significant. The concentration causing a 50% reduction in cell viability (IC50) was estimated for each drug tested from the graphs, and is reported in Table 7. A comparison to data extracted from the scientific literature is also reported.

[2] = system: HepG2 spheroids; assay: Sensitivity to hepatotoxins, CellTiter-Glo ATP viability, 3D spheroids; type: cell-based; conditions: Homo sapiens, 4-day repeat dosing (day 3 and day 5), readout day 7, estimated from graphs
Protocol: as §1, §2, §3, §4

[3] = system: HepG2 cells (2D monocultures); assay: NBM exposure, LDH cytotoxicity assay, 2D monocultures; type: cell-based, Human; conditions: 125 µM, 24 h
Protocol: Stock NBM suspensions were vortexed and appropriate dilutions made in cell culture medium. For NBM exposures, briefly, cell culture medium was removed from the wells of culture plates and wells washed with pre-warmed PBS. For adenosine 5′-triphosphate (ATP) quantification and lactate dehydrogenase (LDH) assay, 100 µl of each NBM concentration diluted in culture medium was added to each well for three incubation/exposure timepoints, 24, 48 and 72 h.
The LDH assay is a cytotoxicity assay which is used to assess the level of plasma membrane damage in a cell population. […] LDH release in the supernatants (an indirect measure of cytotoxicity responses) was assessed using the Thermo Scientific Pierce LDH Cytotoxicity Assay Kit (Fisher Scientific, Ireland), following the manufacturers’ protocols. […] Absorbance values at wavelengths (λ) equal to 490 and 680 nm were read using an Epoch microplate reader (Biotek, Mason Technologies, Ireland). The LDH activity was calculated using Eq. (1), whereas the percentage (%) cytotoxicity was extrapolated from Eq. (2).1 LDHactivity=Absorbanceλ=490nm-Absorbanceλ=680nm 2 Cytotoxicity%=LDHactivityTreatedculture-LDHactivityNT/LDHactivityPT-LDHactivityNT […]

SMILES | IC50 [1] [µM] | IC50 [2] [µM] | Maximal cell death [3] [%]
CC(=O)Nc1ccc(O)cc1 [Acetaminophen, acetaminophen] | > 10000 | > 8000 | –
O=C(O)Cc1ccccc1Nc1c(Cl)cccc1Cl [Diclofenac, diclofenac] | > 400 | > 250 | –
O=c1[nH]c(=O)n([C@@H]2O[C@H](CO)[C@@H](O)[C@@H]2F)cc1I [Fialuridine, fialuridine] | > 200 | > 200 | –
N[C@@H]1[C@H]2CN(c3nc4c(cc3F)c(=O)c(C(=O)O)cn4-c3ccc(F)cc3F)C[C@@H]12 [Trovafloxacin, trovafloxacin] | > 400 | > 100 | –
CC(C)[C@@H]1NC(=O)[C@H](C)OC(=O)[C@@H](C(C)C)NC(=O)[C@@H](C(C)C)OC(=O)[C@H](C(C)C)NC(=O)[C@H](C)OC(=O)[C@@H](C(C)C)NC(=O)[C@@H](C(C)C)OC(=O)[C@H](C(C)C)NC(=O)[C@H](C)OC(=O)[C@@H](C(C)C)NC(=O)[C@@H](C(C)C)OC1=O [valinomycin] | – | – | < 50
